Experimental data taken from US6706740B2, “Fungicidal heterocyclic aromatic amides and their compositions, methods of use and preparation” (Dow AgroSciences LLC, priority 1999, dated 2004).
Read-outs that look alike come from different tables or passages of the source.

Experiments:
[1] = test system: Phytophthora infestans—PHYTIN; assay: whole plant or invertebrate; format: in vivo; conditions: Phytophthora, in Solanum lycopersicum, 24 h, read-out: PHYTIN in vivo 1 Day Protectant
[2] = test system: Rhizoctonia solani (RHIZSO); assay: microbe, parasite or virus in culture; format: cell-based; conditions: Rhizoctonia solani, read-out: RHIZSO in vitro Growth Inhibition
Ustilago maydis (USTIMA) = assay: microbe, parasite or virus in culture; format: cell-based; conditions: Mycosarcoma maydis, read-out: USTIMA in vitro Growth Inhibition
Septoria tritici—SEPTTR = assay: Leaf Blotch of Wheat, in vivo whole plant, 24 Hour Protectant; conditions: control of fungal infection vs untreated plants; for pest or weed control at 100 ppm: Zymoseptoria tritici, 24 h, read-out: SEPTTR in vivo 1 Day Protectant
Erysiphe graminis—ERYSGT = assay: Powdery Mildew of Wheat, in vivo whole plant, 24 Hour Protectant; conditions: Erysiphe, control of fungal infection vs untreated plants, read-out: ERYSGT in vivo 1 Day Protectant
[3] = test system: Mycosphaerella graminicola (Septoria tritici—SEPTTR); assay: In vitro fungal growth inhibition, Mycosphaerella graminicola (SEPTTR); format: cell-based; conditions: Zymoseptoria tritici, read-out: SEPTTR in vitro Growth Inhibition
[4] = test system: Leptosphaeria nodorum—LEPTNO; assay: Glume Blotch of Wheat, in vivo whole plant, 24 Hour Protectant; conditions: control of fungal infection vs untreated plants; for pest or weed control at 100 ppm: Leptosphaeria, read-out: LEPTNO in vivo 1 Day Protectant
[5] = test system: Puccinia recondita—PUCCRT; assay: Brown Rust of Wheat, in vivo whole plant, 24 Hour Protectant; conditions: control of fungal infection vs untreated plants; for pest or weed control at 100 ppm: Puccinia, read-out: PUCCRT in vivo 1 Day Protectant
[6] = test system: Phytophthora infestans (PHYTIN); assay: microbe, parasite or virus in culture; format: cell-based; conditions: Phytophthora infestans, read-out: PHYTIN in vitro Growth Inhibition
[7] = test system: Stagonospora nodorum (Leptosphaeria nodorum—LEPTNO); assay: In vitro fungal growth inhibition, Stagonospora nodorum (LEPTNO); format: cell-based; conditions: Leptosphaeria, read-out: LEPTNO in vitro Growth Inhibition
[8] = test system: Magnaporthe grisea (Pyricularia oryzae—PYRIOR); assay: microbe, parasite or virus in culture; format: cell-based; conditions: Pyricularia oryzae, read-out: PYRIOR in vitro Growth Inhibition
[9] = 100 ppm spray, 24 hour protectant, wheat
[10] = 100 ppm spray, wheat, 24 hour protectant
[11] = wheat plants sprayed at 100 ppm, inoculated after 24 hours

SMILES	pest or weed control at 100 ppm [1] [%]	inhibition at 25 ppm [2] [%]	inhibition at 25 ppm (Ustilago maydis (USTIMA)) [%]	pest or weed control at 100 ppm (Septoria tritici—SEPTTR; [9]) [%]	pest or weed control at 100 ppm (Erysiphe graminis—ERYSGT; [9]) [%]	inhibition at 25 ppm ([3]; 25 ppm in growth medium) [%]	pest or weed control at 100 ppm [4, 9] [%]	pest or weed control at 100 ppm [5, 9] [%]	inhibition at 25 ppm [6] [%]	inhibition at 25 ppm ([7]; 25 ppm in growth medium) [%]	inhibition at 25 ppm [8] [%]	pest or weed control at 100 ppm (Septoria tritici—SEPTTR; [10]) [%]	pest or weed control at 100 ppm (Erysiphe graminis—ERYSGT; [10]) [%]	pest or weed control at 100 ppm [4, 10] [%]	pest or weed control at 100 ppm [5, 10] [%]	further results
COc1ccnc(C(=O)N[C@H]2CO[C@@](C)(C(C)CC3=C(C)CCCC3(C)C)OC2)c1O (some centres unmarked) [Compound 318]	25 to 74	> 80	< 80	25 to 74	< 25	> 80	25 to 74	25 to 74	> 80	> 80	< 80					
COc1ccnc(C(=O)Nc2ccc(C(=O)c3cccc(C(F)(F)F)c3)cc2)c1O [Compound 405]	< 25	< 80	< 80			< 80			< 80	> 80	< 80	< 25	< 25	25 to 74	< 25	
CC1(C)CC(NC(=O)c2ncccc2O)CC(C)(C2CC2)C1 (centres unmarked) [Compound 204]	< 25	< 80	< 80	25 to 74	< 25	< 80	< 25	< 25	< 80	< 80	< 80					
COC(=O)C(COC(=O)C(C)c1ccccc1)NC(=O)c1nccc(OC)c1O (centres unmarked) [Compound 343]	< 25	< 80	< 80			< 80			< 80	< 80	< 80	< 25	25 to 74	25 to 74	< 25	
CC(NC(=O)c1nc(Br)ccc1O)c1ccc(Oc2ccccc2)cc1 (centres unmarked) [Compound 490]	< 25	< 80	< 80						< 80		< 80					pest or weed control at 100 ppm (Septoria tritici—SEPTTR; [11]): 25 to 74%; pest or weed control at 100 ppm (Erysiphe graminis—ERYSGT; [11]): < 25%; inhibition at 25 ppm ([3]; 25 ppm in the growth medium): < 80%; pest or weed control at 100 ppm [4, 11]: < 25%; pest or weed control at 100 ppm [5, 11]: 25 to 74%; inhibition at 25 ppm ([7]; 25 ppm in the growth medium): < 80%
COc1ccnc(C(=O)N[C@@H]2CC3CC2[C@H]2COC[C@@H]32)c1O (some centres unmarked) [Compound 302]	< 25	< 80	< 80	25 to 74	< 25	< 80	25 to 74	< 25	< 80	< 80	< 80					
COc1ccnc(C(=O)Nc2cc(C)c(OC(=O)c3ccccc3)c(C)c2)c1O [Compound 456]	< 25	< 80	< 80			> 80			< 80	> 80	< 80	25 to 74	< 25	< 25	< 25	
COC(=O)C(COC(=O)COCc1ccccc1)NC(=O)c1nccc(OC)c1O (centres unmarked) [Compound 346]	< 25	< 80	< 80			< 80			> 80	< 80	< 80	25 to 74	< 25	< 25	25 to 74	
CC(=O)Oc1cccnc1C(=O)N[C@H]1COC(=O)[C@H](Cc2ccccc2)[C@@H](OC(=O)C(C)C)[C@H](C)OC1=O [Compound 568]	< 25	< 80	< 80						< 80		< 80					SEPTTR in vivo 1 Day Protectant (Septoria tritici—SEPTTR; [11]): + +; pest or weed control at 100 ppm (Erysiphe graminis—ERYSGT; [11]): < 25%; inhibition at 25 ppm ([3]; 25 ppm in the growth medium): > 80%; LEPTNO in vivo 1 Day Protectant [4, 11]: + +; PUCCRT in vivo 1 Day Protectant [5, 11]: + +; inhibition at 25 ppm ([7]; 25 ppm in the growth medium): > 80%
Cc1cc(C)cc(NC(=O)c2ncccc2O)c1 [Compound 215]	< 25	< 80	< 80	< 25	< 25	> 80	< 25	< 25	< 80	< 80	< 80					
COc1ccnc(C(=O)NC(COC(=O)C(Cc2ccccc2)C(C)OC(=O)c2ccccc2)C(=O)OC(C)C)c1O (centres unmarked) [Compound 356]	< 25	< 80	< 80			< 80			< 80	< 80	< 80	25 to 74	< 25	25 to 74	25 to 74	
COc1ccnc(C(=O)NC2CC(C)(C)/C=C\CC(C)(C)C2)c1OC(C)=O (centres unmarked) [Compound 580]	< 25	< 80	< 80						< 80		< 80					pest or weed control at 100 ppm (Septoria tritici—SEPTTR; [11]): 25 to 74%; pest or weed control at 100 ppm (Erysiphe graminis—ERYSGT; [11]): < 25%; inhibition at 25 ppm ([3]; 25 ppm in the growth medium): < 80%; LEPTNO in vivo 1 Day Protectant [4, 11]: + +; pest or weed control at 100 ppm [5, 11]: 25 to 74%; inhibition at 25 ppm ([7]; 25 ppm in the growth medium): < 80%
O=C(NCCCCc1ccccc1)c1ncccc1O [Compound 234]	< 25	< 80	< 80	25 to 74	< 25	< 80	< 25	< 25	> 80	> 80	> 80					
COc1ccnc(C(=O)NC2CC3CCC2C3)c1O (centres unmarked) [Compound 287]	< 25	> 80	< 80	25 to 74	< 25	< 80	25 to 74	25 to 74	< 80	< 80	< 80					
COc1ccnc(C(=O)N[C@H]2COC(=O)[C@H](Cc3ccccc3)[C@@H](OC(=O)NC(C)C)[C@H](C)OC2=O)c1O [Compound 399]	< 25	< 80	< 80			< 80			< 80	< 80	< 80	25 to 74	< 25		25 to 74	LEPTNO in vivo 1 Day Protectant [4, 10]: + +
O=C(Nc1cccc(C(F)(F)F)c1)c1ncccc1O [Compound 214]	< 25	< 80	< 80	< 25	< 25	< 80	< 25	< 25	< 80	< 80	< 80					
